The subject of series [1] is HIV-1. Conditions: Method A; for pEC50 (−logEC50): MT-4 cells, HIV-infected, MTT, 50% protection; for pSI (pCC50-pEC50): selectivity index, ratio of CC50 to EC50. The protocol:
An […] T4-cell line, MT-4, which was previously shown (Koyanagi et al., Int. J. Cancer, 36, 445-451, 1985) to be highly susceptible to and permissive for HIV infection, served as the target cell line. Inhibition of the HIV-induced cytopathic effect was used as the end point. The viability of both HIV- and mock-infected cells was assessed spectrophotometrically via the in situ reduction of 3-(4,5-dimethylthiazol-2-yl)-2,5-diphenyltetrazolium bromide (MTT). The 50% cytotoxic concentration (CC50 in M) was defined as the concentration of compound that reduced the absorbance of the mock-infected control sample by 50%. The percent protection achieved by the compound in HIV-infected cells was calculated by the following formula:
[formula] whereby (ODT)HIV is the optical density measured with a given concentration of the test compound in HIV-infected cells; (ODC)HIV is the optical density measured for the control untreated HIV-infected cells; (ODC)MOCK is the optical density measured for the control untreated mock-infected cells; all optical density values were determined at 540 nm. The dose achieving 50% protection according to the above formula was defined as the 50% effective concentration (EC50 in M). The ratio of CC50 to EC50 was defined as the selectivity index (SI). Method B

Series [2] relates to mock-infected MT-4 cells. Format: cell-based.
Procedure: An HIV-1 transformed T4-cell line, MT-4, which was previously shown (Koyanagi et al., Int. J. Cancer, 36, 445-451, 1985) to be highly susceptible to and permissive for HIV infection, served as the target cell line. Inhibition of the HIV-induced cytopathic effect was used as the end point. The viability of both HIV- and mock-infected cells was assessed spectrophotometrically via the in situ reduction of 3-(4,5-dimethylthiazol-2-yl)-2,5-diphenyltetrazolium bromide (MTT). The 50% cytotoxic concentration (CC50 in M) was defined as the concentration of compound that reduced the absorbance of the mock-infected control sample by 50%. The percent protection achieved by the compound in HIV-infected cells was calculated by the following formula:
A short description of series [3]: Method B: cytotoxicity in mock-infected MT-4 cells engineered with GFP under a constitutional promotor. Type of series: cell-based. Conditions: human; Method B; mock-infected MT-4 cells with GFP, fluorescence reduced by 50%; read-out: pCC50 (−logCC50) (converted). As for the experimental part:
In these cells, engineered with GFP (and an HIV-specific promotor), ongoing HIV-infection was measured fluorometrically. Cytotoxicity is measured in the same cells, but engineered with GFP under a constitutional promotor. The infection (or inhibition thereof) of HIV infected cells and the fluorescence of mock-infected cells is assessed by the fluorescent GFP signal generated by the two above mentioned cell lines.
The 50% cytotoxic concentration (CC50 in μM) was defined as the concentration of compound that reduced fluorescence of the mock-infected cells by 50%.

The test system of series [4] is HIV-1. Particulars: Method B; selectivity index, ratio of CC50 to EC50.
Series [5] deals with HIV-1. The series can be described thus: microbe, parasite or virus in culture. Particulars: Human immunodeficiency virus 1, MT4, read-out: pEC50 (−logEC50) (converted).

Bounds are passed on as bounds.

For the compound `Cc1cc(C)c(Oc2nc(Nc3ccc(C#N)cc3)nc3[nH]cnc23)c(C)c1` [Compound 23], in series [1], the “pEC50 (−logEC50)” value was determined as 8.2 M and the “pSI (pCC50-pEC50)” value is recorded as below −3.6. The “pCC50 (−logCC50)” value in series [2] is recorded as below 4.6.

`Cc1cc(C)c(Nc2nc(Nc3ccc(C#N)cc3)nc3[nH]cnc23)c(C)c1` [Compound 24]: in series [1], the “pEC50 (−logEC50)” value came out at 8.4 M and the “pSI (pCC50-pEC50)” value is given as −4.1. Besides, the “pCC50 (−logCC50)” value in series [2] is recorded as 4.3.

`Cc1cc(C#N)cc(C)c1Oc1nc(Nc2ccc(C#N)cc2)nc2[nH]cnc12` [Compound 28]: in series [1], the “pEC50 (−logEC50)” value was determined as 9.0 M and the “pSI (pCC50-pEC50)” value is below −4.4. The “pCC50 (−logCC50)” value in series [2] was below 4.6.

`COc1cc(C)c(Nc2nc(Nc3ccc(C#N)cc3)nc3[nH]cnc23)c(C)c1` [Compound 25]: in series [1], the “pEC50 (−logEC50)” value is 8.5 M and the “pSI (pCC50-pEC50)” value is on record as below −4. For the same compound, the “pCC50 (−logCC50)” value in series [2] is below 4.5.

Take `COc1cc(/C=C/C#N)cc(C)c1Nc1nc(Nc2ccc(C#N)cc2)nc2c1ncn2CC#N` [Compound 52]: the CC50 in series [3] is 2000 nM. The “pSI (pEC50 − pCC50)” value in series [4] came to 3.6. The EC50 in series [5] was 0.501 nM.

For `COc1cc(/C=C/C#N)cc(C)c1Nc1nc(Nc2ccc(C#N)cc2)nc2[nH]cnc12` [Compound 6], the CC50 in series [3] is 794 nM. Also, the “pSI (pEC50 − pCC50)” value in series [4] was −2.9. Also, the EC50 in series [5] is 1 nM.

The values above are taken from patent US8026245B2, “HIV replication inhibiting purine derivatives” (Janssen Pharmaceutica N.V., priority 2003, dated 2011).
